Data: US11571413B2, “Nicotinamide riboside treatments of domesticated meat animals” (Kansas State University Research Foundation, priority 2017, dated 2023)

Assays:
finishing barrows = assay: Finishing pig carcass measures and fabrication (Example IV); type: in vivo; details: 10 days
Procedure: Seven days prior to the beginning of the experiment, 10 finishing barrows (initial BW 111.9±1.6 kg) were assigned to individual pens located at the East Finisher facility of the Kansas State University Swine Teaching and Research Center (Manhattan, Kans.). Each pen was 7.4 m^2 with a slatted floor, contained a nipple waterer and an individual dry feeder that allowed ad libitum access to food and water. Barrows were randomly assigned to 1 of 2 NR treatments, 0 or 30 mg/kg daily of NR mixed in Karo® syrup and administered by oral gavage. Barrows were administered their assigned treatment for 10 days, after which they were harvested under USDA inspection. Twenty-four hours after harvest, carcass measurements were taken by trained personnel, carcasses were fabricated into the 5 major wholesale cuts, and whole-boneless loins were vacuum packaged and aged for 10 days. Loin were cut into 3 chops with chop 1 being used for day-0 metmyoglobin reducing ability (MRA) analysis, chop 2 being used for day-4 MRA and oxygen consumption rate (OCR) analyses, and chop 3 for 8-day objective/subjective color evaluation and MRA and OCR analyses.

growing pigs = assay: Longissimus lumborum chop retail color stability, 6-day display (Example III); type: in vivo, pig; details: for Greater discoloration score of 0 mg/kg chops than NR chops: day 6 of display
Procedure: Nine growing pigs were blocked by bodyweight (BW) and placed in metabolism crates. After a 3-day acclimation period, pigs within each BW block were randomly assigned to a treatment (n=3 pigs/treatment). Treatments comprised pigs supplemented 0, 15, or 30 mg/kg BW NR for 7 days. Pigs were allowed ad libitum access to a standard growing diet and water. Treatments were administered daily at 8 a.m. by mixing NR in 20 mL of Karo® dark syrup and orally drenching the pigs. On day 0 and 3 of the trial, muscle biopsies of the LL were taken for NAD+ analysis using standard procedures. At day 7, pigs were transported to the Kansas State University Meats Laboratory and euthanized by a captive penetrating bolt to the brain, followed by exsanguination. Following harvest procedures, 3 g of the LL were collected for NAD+ analysis. Twenty-four hours after harvest, the whole LL not sampled at harvest was removed from the carcass and aged 10 days. After aging, the LL was cut into 6 chops for retail color stability analysis, including 6-day surface oxy- and metmyoglobin percentage, 6-day objective and subjective color panel evaluation, and day 4 and 6 metmyoglobin reducing ability (MRA).

[1] = system: Fertilized Cobb 500 broiler eggs; assay: Pectoralis major muscle fiber morphometrics and satellite cell content (second Example VI); type: in vivo, chicken
Procedure: The methods of Gonzalez and Jackson (2020) were followed for immunohistochemistry analysis. On 2 separate slides, 6 cryosections (10 μm thick) were collected on positively charged slides (Diamond White Glass; Globe Scientific Inc., Paramus, N.J.). Cryosections were incubated in 5% horse serum and 0.2% TritonX-100 in phosphate buffered saline (PBS) for 30 min to block all nonspecific binding sites. Cryosections were incubated for 16 h at 4° C. with a primary antibody solution comprising blocking solution and 1:500 rabbit α-dystrophin (Thermo Scientific, Waltham, Mass.) and 1:2 […] α-Pax7 antibody (Developmental Studies Hybridoma Bank, Iowa City, Iowa). Cryosections were washed 3 times for 5 min with PBS and incubated for 30 min with 1:1,000 Alexa-Flour 594 goat-anti-rabbit H&L (Life Technologies, Carlsbad, Calif.), 1:1000 Alexa-Flour 488 chicken-anti-mouse IgG1 (Life Technologies), and 1:1,000 Hoescht Dye 33342 (Life technologies) secondary antibodies in blocking solution. After washing in PBS 3 times for 5 min, 5 μL of 9:1 glycerol in PBS was placed on each cryosection and slides were coverslipped for imaging. All cryosections were imaged at 200× magnification using a Nikon Eclipse TI-U inverted microscope (Nikon Instruments Inc., Melville, N.Y.). Immunohistochemistry photomicrographs were collected with a DS-QiMC digital camera (Nikon Instruments Inc.) and SDH cryosections were collected with a Nikon DS-Fil color digital camera (Nikon Instruments Inc.) White light intensity was kept constant for SDH photomicrographs. All photomicrograph collection and image analyses were conducted using NIS Elements Basic Software (Nikon Instruments Inc.). Cross-sectional area (CSA) of a minimum of 1,000 muscle fibers per chick was determined as the area within the dystrophin border. The number of satellite cell was determined as nuclei co-staining for Pax 7 and Hoechst dye located at the periphery of muscle fiber. A minimum of 50 muscle fiber bundles per chick were analyzed for SDH mean intensity using the same software. The scale for mean intensity ranged from 0 (black or the most intense staining) to 250 (white or the least intense staining).

[2] = 250, 500 mM or 1 M NR, hatched chicks
[3] = 250 and 500 mM NR, hatched chicks

For NC(=O)c1ccc[n+]([C@@H]2O[C@H](CO)[C@@H](O)[C@H]2O)c1 [Nicotinamide riboside, nicotinamide riboside], the “1st rib subcutaneous fat” value (finishing barrows; NR 30 mg/kg daily oral gavage) was 1.76 cm, the “10th rib subcutaneous fat” value (finishing barrows; NR 30 mg/kg daily oral gavage) was 0.95 cm and the “Carcass fabrication, Belly” value (finishing barrows; NR 30 mg/kg daily oral gavage) was 7.93 kg. The “Carcass fabrication, Boneless loin” value (finishing barrows; NR 30 mg/kg daily oral gavage) was 10.39 kg, the “Carcass fabrication, Boston butt” value (finishing barrows; NR 30 mg/kg daily oral gavage) was 3.22 kg and the “Carcass fabrication, Ham” value (finishing barrows; NR 30 mg/kg daily oral gavage) was 9.63 kg. For the same compound, the “Carcass fabrication, Picnic shoulder” value (finishing barrows; NR 30 mg/kg daily oral gavage) was 4.42 kg, the Carcass weight (finishing barrows; NR 30 mg/kg daily oral gavage) was 97.4 kg and the “Last lumbar subcutaneous fat” value (finishing barrows; NR 30 mg/kg daily oral gavage) was 0.83 cm. For the same compound, the “Last rib subcutaneous fat” value (finishing barrows; NR 30 mg/kg daily oral gavage) was 0.91 cm, the Loin eye area (finishing barrows; NR 30 mg/kg daily oral gavage) was 7.3 in² and the “Marbling (National Pork Producers Council marbling score)” value (finishing barrows; NR 30 mg/kg, 1 = none and 10 = abundant) was 2.4. For the same compound, the “Color (National Pork Producers Council color score)” value (finishing barrows; NR 30 mg/kg, 1 = pale pinkish gray to white, 6 = dark purplish red) was 3.4, the “Visual panel discoloration scores between treatments” value (growing pigs; 0, 15 and 30 mg/kg, days 1, 4 and 5 of display) was “did not differ” and the “Less surface metmyoglobin accumulation than 0 mg/kg chops (tendency)” value (growing pigs; 15 mg/kg BW, 7 days, LL chops, entire 6-day display) was 9%. For the same compound, the “Greater discoloration score of 0 mg/kg chops than NR chops” value (growing pigs; 15 mg/kg) was 41%, the “Less discoloration than 0 mg/kg chops (tendency)” value (growing pigs; 15 mg/kg, entire 6-day study) was 27% and the “More MRA than 0 mg/kg chops (tendency)” value (growing pigs; 15 mg/kg, over the entire study) was 42%. For the same compound, the “Less surface metmyoglobin than 0 mg/kg chops” value (growing pigs; 30 mg/kg BW, 7 days, LL chops, entire 6-day display) was 14%, the “Greater discoloration score of 0 mg/kg chops than NR chops” value (growing pigs; 30 mg/kg) was 39% and the “Less surface discoloration than 0 mg/kg chops” value (growing pigs; 30 mg/kg, entire 6-day study) was 30%. The “More metmyoglobin reducing ability (MRA) than 0 mg/kg chops” value (growing pigs; 30 mg/kg, over the entire study) was 64%, the “Surface discoloration of 0 mg/kg chops vs 15 and 30 mg/kg chops” value (growing pigs; days 2 and 3 of display) was “tended to have more surface discoloration” and the “Increase of satellite cell density compared to control” value ([1]; 250 mM NR, at hatching) was 73%. The “Satellite cell density vs control chicks” value ([1]; 250 mM NR, hatched chicks) was “greater”, the “Average increase of satellite cell density compared to control” value ([1]; 500 mM and 1 M NR, at hatching) was 116% and the “Satellite cell density vs 0 and 250 mM treatments” value ([1]; 500 mM or 1 M NR, hatched chicks) was “greater satellite cell density”. The “Increase of muscle fiber density compared to control chicks” value ([1]; 1 M NR, hatched chicks) was 75%, the “Muscle fiber density vs all other treatments” value ([1]; 1 M NR, hatched chicks) was “greater muscle fiber density” and the “Muscle fiber CSA” value [1, 2] was “no treatment effect”. The “Number of satellite cells per muscle fiber” value [1, 2] was “no treatment effect”, the “Increase of muscle fiber density compared to control chicks (average)” value [1, 3] was 34% and the “Muscle fiber density vs control chicks” value [1, 3] was “greater muscle fiber density”.
